Data set [1] addresses Beta-1 adrenergic receptor (Homo sapiens, UniProt P08588). Nature of the data set: DRUGMATRIX: Adrenergic beta1 radioligand binding (ligand: [125I] Cyanopindolol). It is filed as cell membranes, CHO-K1, Membrane. To be noted: Not Active = under 50% inhibition at 10 µM.
The target of the next data set is Substance-P receptor (Homo sapiens, UniProt P25103). The format is cell membranes, Membrane. To be noted: cho. Also: in other assays of this panel Not Active means under 50% inhibition at 10 µM.
Sequence of Substance-P receptor (P25103 whole entry): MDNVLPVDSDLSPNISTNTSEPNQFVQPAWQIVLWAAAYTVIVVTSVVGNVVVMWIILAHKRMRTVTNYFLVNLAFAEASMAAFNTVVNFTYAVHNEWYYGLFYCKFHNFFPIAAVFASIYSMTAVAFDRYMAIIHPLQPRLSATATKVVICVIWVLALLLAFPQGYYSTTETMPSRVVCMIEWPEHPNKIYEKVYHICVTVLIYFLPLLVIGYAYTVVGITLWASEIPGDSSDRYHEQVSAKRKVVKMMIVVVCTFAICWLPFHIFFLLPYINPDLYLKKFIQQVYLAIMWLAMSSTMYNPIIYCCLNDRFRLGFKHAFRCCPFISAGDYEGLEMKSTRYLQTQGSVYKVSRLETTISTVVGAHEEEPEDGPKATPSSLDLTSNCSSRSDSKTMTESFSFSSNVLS
Data set [2] concerns the target Platelet-activating factor receptor (Homo sapiens, UniProt P25105). The format is tissue-based. Also: in other assays of this panel Not Active means under 50% inhibition at 10 µM.
Another data set concerns the target Mu-type opioid receptor (Homo sapiens, UniProt P35372). Nature of the data set: DRUGMATRIX: Opiate mu (OP3, MOP) radioligand binding (ligand: [3H] Diprenorphine). The format is cell membranes, CHO-K1, Membrane. Particulars: cho-k1; Not Active = under 50% inhibition at 10 µM.
Data set [3] concerns the target T1, Neuropeptide Y receptor type 1 (Homo sapiens, UniProt P25929). Also: in other assays of this panel Not Active means under 50% inhibition at 10 µM.
T1 sequence (P25929 whole entry): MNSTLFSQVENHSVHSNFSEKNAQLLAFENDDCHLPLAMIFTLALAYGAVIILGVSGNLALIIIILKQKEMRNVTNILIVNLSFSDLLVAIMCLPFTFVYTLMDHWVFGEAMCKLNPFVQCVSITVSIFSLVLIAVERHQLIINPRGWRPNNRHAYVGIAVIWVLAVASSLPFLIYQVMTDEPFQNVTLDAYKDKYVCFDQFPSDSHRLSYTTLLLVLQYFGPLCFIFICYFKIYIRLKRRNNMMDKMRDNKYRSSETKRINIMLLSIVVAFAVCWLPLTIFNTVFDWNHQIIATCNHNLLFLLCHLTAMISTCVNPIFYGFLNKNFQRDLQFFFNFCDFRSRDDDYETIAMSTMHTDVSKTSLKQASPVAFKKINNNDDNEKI
It is filed as cell membranes, Membrane. Particulars: sk-n-mc.

For a further data set, the target named is Insulin receptor (Rattus norvegicus, UniProt P15127). The format is cell membranes, Wistar, Liver, Membrane. Also: in other assays of this panel Not Active means under 50% inhibition at 10 µM.
Sequence of Insulin receptor (P15127 27-759 limits assumed): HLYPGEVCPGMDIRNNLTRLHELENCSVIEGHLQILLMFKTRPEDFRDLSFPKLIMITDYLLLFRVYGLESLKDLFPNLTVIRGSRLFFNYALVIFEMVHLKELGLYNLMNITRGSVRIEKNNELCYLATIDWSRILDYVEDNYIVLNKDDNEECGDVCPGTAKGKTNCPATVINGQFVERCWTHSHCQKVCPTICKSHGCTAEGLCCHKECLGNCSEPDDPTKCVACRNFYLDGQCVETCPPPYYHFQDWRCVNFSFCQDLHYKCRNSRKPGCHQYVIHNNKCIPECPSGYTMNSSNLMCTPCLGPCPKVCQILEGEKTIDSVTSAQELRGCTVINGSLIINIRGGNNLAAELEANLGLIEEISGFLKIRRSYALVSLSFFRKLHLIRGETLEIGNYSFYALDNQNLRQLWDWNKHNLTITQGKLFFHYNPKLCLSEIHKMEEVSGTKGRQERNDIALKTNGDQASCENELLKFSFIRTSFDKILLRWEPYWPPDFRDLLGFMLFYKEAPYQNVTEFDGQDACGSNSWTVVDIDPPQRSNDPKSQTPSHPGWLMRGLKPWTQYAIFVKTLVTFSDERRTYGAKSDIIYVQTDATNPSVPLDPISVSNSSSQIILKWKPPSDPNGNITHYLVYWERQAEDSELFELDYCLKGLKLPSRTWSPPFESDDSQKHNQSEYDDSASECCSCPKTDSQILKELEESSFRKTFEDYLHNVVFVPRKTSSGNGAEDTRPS
Sequence of Insulin receptor (P15127 764-1383 limits assumed): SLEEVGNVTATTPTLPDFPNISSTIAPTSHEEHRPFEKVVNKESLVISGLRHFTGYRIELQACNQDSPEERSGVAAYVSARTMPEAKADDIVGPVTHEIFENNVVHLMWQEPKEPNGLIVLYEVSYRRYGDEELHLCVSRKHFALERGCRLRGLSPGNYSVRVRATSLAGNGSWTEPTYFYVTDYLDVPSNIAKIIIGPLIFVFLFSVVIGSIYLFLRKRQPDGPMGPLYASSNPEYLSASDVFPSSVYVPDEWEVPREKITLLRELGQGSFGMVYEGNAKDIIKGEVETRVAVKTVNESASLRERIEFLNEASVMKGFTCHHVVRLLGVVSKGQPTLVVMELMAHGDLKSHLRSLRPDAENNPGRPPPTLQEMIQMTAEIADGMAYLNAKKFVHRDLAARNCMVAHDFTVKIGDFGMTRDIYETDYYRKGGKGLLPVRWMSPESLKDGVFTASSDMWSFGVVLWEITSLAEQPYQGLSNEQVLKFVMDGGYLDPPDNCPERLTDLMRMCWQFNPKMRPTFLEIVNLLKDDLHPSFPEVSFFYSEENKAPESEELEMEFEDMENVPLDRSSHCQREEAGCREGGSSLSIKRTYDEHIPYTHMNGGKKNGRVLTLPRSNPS
For a further data set, the target named is T2, Cytochrome P450 1A2 (Homo sapiens, UniProt P05177). Also: in other assays of this panel Not Active means under 50% inhibition at 10 µM.
T2 sequence (P05177 whole entry): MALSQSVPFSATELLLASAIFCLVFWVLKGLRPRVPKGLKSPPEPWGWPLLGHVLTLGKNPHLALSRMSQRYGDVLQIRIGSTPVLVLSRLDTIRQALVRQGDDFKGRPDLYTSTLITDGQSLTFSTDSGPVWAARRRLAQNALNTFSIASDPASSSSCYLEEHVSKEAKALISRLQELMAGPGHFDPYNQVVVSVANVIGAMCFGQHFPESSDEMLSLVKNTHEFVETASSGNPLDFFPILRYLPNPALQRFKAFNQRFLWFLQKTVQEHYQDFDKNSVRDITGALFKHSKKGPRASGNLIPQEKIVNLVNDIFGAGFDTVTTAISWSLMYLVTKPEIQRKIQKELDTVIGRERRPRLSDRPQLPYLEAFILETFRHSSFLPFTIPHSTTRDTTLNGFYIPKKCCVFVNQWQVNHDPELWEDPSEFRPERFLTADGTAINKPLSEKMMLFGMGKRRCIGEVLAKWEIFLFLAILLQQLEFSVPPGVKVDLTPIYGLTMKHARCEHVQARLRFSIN
To be noted: bti-tn-5b1-4.

The target in data set [4] is 5-hydroxytryptamine receptor 6 (Homo sapiens, UniProt P50406). The format is cell membranes, HeLa, Membrane. Particulars: for Ki: read-out: Ki.
Sequence of 5-hydroxytryptamine receptor 6 (P50406 whole entry): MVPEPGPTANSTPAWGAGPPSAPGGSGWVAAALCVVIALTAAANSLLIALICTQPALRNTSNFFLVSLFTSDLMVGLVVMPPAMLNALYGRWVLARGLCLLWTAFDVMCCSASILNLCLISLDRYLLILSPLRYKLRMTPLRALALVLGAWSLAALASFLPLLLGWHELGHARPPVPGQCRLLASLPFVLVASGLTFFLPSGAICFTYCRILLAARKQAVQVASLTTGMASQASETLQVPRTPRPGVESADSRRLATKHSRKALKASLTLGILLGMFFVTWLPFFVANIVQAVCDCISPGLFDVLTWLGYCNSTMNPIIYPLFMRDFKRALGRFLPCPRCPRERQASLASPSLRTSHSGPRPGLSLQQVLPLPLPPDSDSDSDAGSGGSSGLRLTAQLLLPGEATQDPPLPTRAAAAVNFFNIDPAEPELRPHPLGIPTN
A short description of data set [5]: DRUGMATRIX: Potassium Channel [KATP] radioligand binding (ligand: [3H] Glyburide). It is filed as cell membranes, Membrane. Particulars: hit-t15; Not Active = under 50% inhibition at 10 µM.
Data set [6] in a line: DRUGMATRIX: GABAA, Chloride Channel, TBOB radioligand binding (ligand: [3H] TBOB). The format is cell membranes, Rattus norvegicus, Wistar, Cerebral cortex, Membrane. Particulars: Not Active = under 50% inhibition at 10 µM.
Data set [7] addresses T3, C-X-C chemokine receptor type 2 (Homo sapiens, UniProt P25025).
T3 sequence (P25025 whole entry): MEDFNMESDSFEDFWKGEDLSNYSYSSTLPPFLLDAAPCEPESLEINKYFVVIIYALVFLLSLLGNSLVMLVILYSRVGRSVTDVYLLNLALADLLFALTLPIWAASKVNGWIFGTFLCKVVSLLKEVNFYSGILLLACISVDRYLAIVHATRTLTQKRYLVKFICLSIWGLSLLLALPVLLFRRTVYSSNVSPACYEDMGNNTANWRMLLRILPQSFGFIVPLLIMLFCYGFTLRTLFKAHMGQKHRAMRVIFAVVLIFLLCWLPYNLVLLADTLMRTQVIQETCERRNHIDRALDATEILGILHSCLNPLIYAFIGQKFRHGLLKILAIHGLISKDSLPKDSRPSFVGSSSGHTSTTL
The format is cell membranes, Membrane. To be noted: cho-k1.

Each structure is given as a SMILES string.

The term IC50 denotes the concentration at which inhibition is half-maximal. The term Ki denotes the equilibrium dissociation constant of an inhibitor or competing ligand from its target.

Sequence of Platelet-activating factor receptor (P25105 whole entry): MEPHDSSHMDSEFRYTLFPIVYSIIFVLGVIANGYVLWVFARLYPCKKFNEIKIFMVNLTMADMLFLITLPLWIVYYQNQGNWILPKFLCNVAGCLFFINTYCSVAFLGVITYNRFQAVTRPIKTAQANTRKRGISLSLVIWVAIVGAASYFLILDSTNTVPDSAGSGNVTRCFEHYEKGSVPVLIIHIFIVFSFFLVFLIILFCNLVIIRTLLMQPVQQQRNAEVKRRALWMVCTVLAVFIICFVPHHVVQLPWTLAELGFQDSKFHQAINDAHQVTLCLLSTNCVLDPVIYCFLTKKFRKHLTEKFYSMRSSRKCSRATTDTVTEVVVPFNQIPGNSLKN
Sequence of Beta-1 adrenergic receptor (P08588 whole entry): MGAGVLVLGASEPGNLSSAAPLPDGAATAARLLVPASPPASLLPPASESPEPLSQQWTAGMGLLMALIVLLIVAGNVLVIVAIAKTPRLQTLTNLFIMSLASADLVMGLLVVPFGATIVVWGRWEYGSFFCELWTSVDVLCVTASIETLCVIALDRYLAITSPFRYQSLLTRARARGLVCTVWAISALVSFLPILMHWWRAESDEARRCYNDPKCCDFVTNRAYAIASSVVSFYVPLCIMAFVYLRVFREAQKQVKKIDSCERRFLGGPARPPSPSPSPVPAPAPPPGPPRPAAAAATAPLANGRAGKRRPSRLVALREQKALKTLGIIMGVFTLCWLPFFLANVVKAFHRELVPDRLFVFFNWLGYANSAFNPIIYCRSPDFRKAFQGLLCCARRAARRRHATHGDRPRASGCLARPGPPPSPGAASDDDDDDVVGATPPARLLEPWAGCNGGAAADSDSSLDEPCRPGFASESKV
Sequence of Mu-type opioid receptor (P35372 whole entry): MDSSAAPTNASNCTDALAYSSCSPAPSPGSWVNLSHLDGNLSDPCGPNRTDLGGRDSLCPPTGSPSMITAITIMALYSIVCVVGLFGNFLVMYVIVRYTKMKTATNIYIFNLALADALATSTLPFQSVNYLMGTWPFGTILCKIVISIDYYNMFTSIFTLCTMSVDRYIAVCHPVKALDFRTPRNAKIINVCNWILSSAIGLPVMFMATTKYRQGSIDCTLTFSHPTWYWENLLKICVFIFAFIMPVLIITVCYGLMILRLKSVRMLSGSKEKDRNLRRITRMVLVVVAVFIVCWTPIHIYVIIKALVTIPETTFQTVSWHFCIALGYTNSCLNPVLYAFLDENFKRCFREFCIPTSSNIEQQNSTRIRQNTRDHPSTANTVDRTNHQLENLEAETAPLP

Consider `CC1=C(CC(=O)O)c2cc(F)ccc2/C1=C\c1ccc([S+](C)[O-])cc1` (stereo not drawn), for which the concentration for half-maximal inhibition (IC50) result (in [1] (cho-k1); at Substance-P receptor; in data set [2]; on Mu-type opioid receptor; in data set [3]; at Insulin receptor) was “Not Active” each time. The 50% inhibitory concentration (IC50) entry (against Cytochrome P450 1A2; in data set [4] (hela); in data set [5]; in [6]; in data set [7]) was “Not Active” throughout. Also, the Ki entry (at Cytochrome P450 1A2; in data set [5]; in data set [6]) was “Not Active” throughout.
For `N[C@H](CSC(=S)NCc1ccccc1)C(=O)O`, the IC50 entry (in [1] (cho-k1); at Substance-P receptor; in data set [2]; at Mu-type opioid receptor; in [3]; against Insulin receptor) was “Not Active” throughout. Besides, the IC50 result (at Cytochrome P450 1A2; in data set [4] (hela); in data set [5]; in data set [6]; in data set [7]) was “Not Active” each time. Further, the inhibitory constant (Ki) result (on Cytochrome P450 1A2; in [5]; in data set [6]) was “Not Active” each time.
Turning to `Clc1ccc2c(c1)C(N1CCNCC1)=Nc1ccccc1O2` [AMOXAPINE], the IC50 result (in data set [1] (cho-k1); on Substance-P receptor; in data set [2]; on Mu-type opioid receptor; in data set [3]; on Insulin receptor) was “Not Active” in each case. For the same compound, the half-inhibitory concentration (IC50) entry (against Cytochrome P450 1A2; in [7]) was “Not Active” throughout. The Ki result at Cytochrome P450 1A2 is “Not Active”.
Regarding `COc1cc2c(c(OC)c1OC)-c1ccc(OC)c(=O)cc1[C@@H](NC(C)=O)CC2` [COLCHICINE], the half-inhibitory concentration (IC50) result (in data set [1] (cho-k1); at Substance-P receptor; in [2]; in data set [3]; against Insulin receptor; in [4] (hela)) was “Not Active” in each case. The IC50 result in [7] was “Not Active”.
For the compound `CN1CCC(=C2c3ccccc3C=Cc3ccccc32)CC1` [CYPROHEPTADINE], the half-maximal inhibitory concentration (IC50) entry (in data set [1] (cho-k1); at Substance-P receptor; in data set [2]; on Mu-type opioid receptor; in data set [3]; against Insulin receptor) was “Not Active” each time. In addition, the IC50 entry against Cytochrome P450 1A2 is “Not Active”; in [4] (read-out: IC50), 0.281 µM; in [7] it was “Not Active”. For the same compound, the figures for the Ki result (at Cytochrome P450 1A2; in data set [4]) were “Not Active” and 0.13 µM, respectively.
For `CC/C(=C(/CC)c1ccc(O)cc1)c1ccc(O)cc1` [DIETHYLSTILBESTROL], the 50% inhibitory concentration (IC50) was 22.1 µM in [1] (read-out: IC50); “Not Active” at Substance-P receptor; “Not Active” in data set [2]; “Not Active” in data set [3]; “Not Active” at Insulin receptor; “Not Active” against Cytochrome P450 1A2. Further, the half-inhibitory concentration (IC50) is 12.9 µM in data set [4] (read-out: IC50) and “Not Active” in data set [7]. For the same compound, the figures for the inhibitory constant (Ki) (in [1] (read-out: Ki); on Cytochrome P450 1A2; in data set [4]) were 12.8 µM, “Not Active” and 5.99 µM, respectively.
In the case of `CC(=O)N1CCN(c2ccc(OCC3COC(Cn4ccnc4)(c4ccc(Cl)cc4Cl)O3)cc2)CC1` (stereo not drawn) [KETOCONAZOLE], the IC50 entry (in data set [1] (cho-k1); against Substance-P receptor; in [2]; on Mu-type opioid receptor; in data set [3]; against Insulin receptor) was “Not Active” throughout. Besides, the concentration for half-maximal inhibition (IC50) entry (at Cytochrome P450 1A2; in data set [4] (hela); in data set [6]; in data set [7]) was “Not Active” each time. For the same compound, the Ki result (on Cytochrome P450 1A2; in data set [6]) was “Not Active” throughout.
In the case of `C=CCN1CC[C@]23c4c5ccc(O)c4O[C@H]2C(=O)CC[C@@]3(O)[C@H]1C5` [NALOXONE], the IC50 result (in data set [1] (cho-k1); against Substance-P receptor; in data set [2]; in data set [3]; at Insulin receptor; in data set [4] (hela)) was “Not Active” each time. In addition, in data set [7], the IC50 entry was “Not Active”.
Take `COCCOC(=O)C1=C(C)NC(C)=C(C(=O)OC(C)C)C1c1cccc([N+](=O)[O-])c1` (stereo not drawn) [NIMODIPINE]: the IC50 entry (in [1] (cho-k1); at Substance-P receptor; in [2]; at Mu-type opioid receptor; in [3]; against Insulin receptor) was “Not Active” in each case. The half-maximal inhibitory concentration (IC50) result in data set [4] (hela), in data set [5], in data set [6] and in data set [7] was “Not Active” each time. In addition, the Ki entry in data set [5] and in data set [6] was “Not Active” throughout.
In the case of `CC(C)NCC(O)COc1cccc2ccccc12` (stereo not drawn) [PROPRANOLOL], the IC50 entry is “Not Active” on Substance-P receptor; “Not Active” in [2]; “Not Active” on Mu-type opioid receptor; “Not Active” in data set [3]; “Not Active” against Insulin receptor; 3.06 µM in [4] (read-out: IC50). Moreover, in data set [7], the 50% inhibitory concentration (IC50) entry was “Not Active”. For the same compound, the inhibition constant (Ki) in data set [4] is 1.42 µM.
On to `O=C(c1ccc(OCCN2CCCCC2)cc1)c1c(-c2ccc(O)cc2)sc2cc(O)ccc12` [RALOXIFENE], for which the IC50 entry (in data set [1] (cho-k1); against Substance-P receptor; in data set [2]; in [3]; against Insulin receptor; at Cytochrome P450 1A2) was “Not Active” throughout. Besides, the 50% inhibitory concentration (IC50) result in data set [4] (hela), in [5], in data set [6] and in data set [7] was “Not Active” in each case. Besides, the Ki entry (at Cytochrome P450 1A2; in data set [5]; in [6]) was “Not Active” throughout.
Consider `CC(C)c1nc(CN(C)C(=O)N[C@H](C(=O)N[C@@H](Cc2ccccc2)C[C@H](O)[C@H](Cc2ccccc2)NC(=O)OCc2cncs2)C(C)C)cs1` [RITONAVIR], for which the IC50 result (in [1] (cho-k1); at Substance-P receptor; in data set [2]; in [3]; against Insulin receptor; in data set [4] (hela)) was “Not Active” each time. The concentration for half-maximal inhibition (IC50) entry in data set [5], in data set [6] and in data set [7] was “Not Active” each time. Further, the inhibitory constant (Ki) result in [5] and in [6] was “Not Active” in each case.
As for `CC(C)(C)c1ccc(C(O)CCCN2CCC(C(O)(c3ccccc3)c3ccccc3)CC2)cc1` (stereo not drawn) [TERFENADINE], the IC50 result (in [1] (cho-k1); against Substance-P receptor; in [2]; on Mu-type opioid receptor; in data set [3]; against Insulin receptor) was “Not Active” throughout. Further, the half-inhibitory concentration (IC50) result (against Cytochrome P450 1A2; in [6]; in data set [7]) was “Not Active” throughout. Also, the inhibition constant (Ki) result (on Cytochrome P450 1A2; in [6]) was “Not Active” each time.
Turning to `CC(=O)CC(c1ccccc1)c1c(O)c2ccccc2oc1=O` (stereo not drawn) [WARFARIN], the IC50 entry (in data set [1] (cho-k1); against Substance-P receptor; in data set [2]; in data set [3]; at Insulin receptor; at Cytochrome P450 1A2) was “Not Active” in each case. Moreover, the half-maximal inhibitory concentration (IC50) entry in [4] (hela), in data set [5], in data set [6] and in data set [7] was “Not Active” in each case. In addition, the inhibition constant (Ki) entry (on Cytochrome P450 1A2; in data set [5]; in data set [6]) was “Not Active” each time.
